Results from patent publication US20240246948A1, “BENZAMIDE DERIVATIVE, METHOD FOR PREPARING SAME, AND PHARMACEUTICAL COMPOSITION FOR PREVENTION OR TREATMENT OF CANCER CONTAINING SAME AS ACTIVE INGREDIENT” (HK INNO.N CORPORATION, priority 2021, published 2024).

Experiments:
[1] = target: Ba/F3 EGFR L858R/T790M (LT) (Homo sapiens, UniProt P00533, T790M/L858R, cells depend on it); assay: Cell growth inhibitory ability in Ba/F3 cells overexpressing EGFR L858R/T790M (MTS, CellTiter 96 AQueous); assay type: cell-based; details: 72 hours, MTS absorbance at 490 nm, read-out: Ba/F3 EGFR double mutant L858R/T790M, IC50
Protocol: (§1) In order to confirm that the compound represented by formula 1 provided in one aspect of the present invention acts as an allosteric inhibitor against WT and mutant of EGFR, the cell growth inhibitory effect was evaluated in BaF3 cells overexpressing WT and mutant of EGFR.
(§2) More specifically, the cell growth inhibitory ability of the compound of the present invention to the Ba/F3 cell line overexpressing WT and mutant of EGFR was evaluated using CellTiter 96 AQueous Non-Radioactive Cell Proliferation Assay system of Promega, as follows. AQueous Non-Radioactive Cell Proliferation Assay is a method of confirming cell growth inhibitory ability by measuring the degree of color development by reducing MTS (3-(4,5-Dimethylthiazol-2-yl)-5-(3-carboxymethoxyphenyl)-2-(4-sulfophenyl)-2H-tetrazolium) to Formazan by a reductase secreted by mitochondria present in living cells in a cell culture state. The Ba/F3 EGFR WT and Ba/F3 EGFR del19/T790M/C797S (DTC), Ba/F3 EGFR L858R (L), Ba/F3 EGFR L858R/T790M (LT), and Ba/F3 EGFR L858R/T790M/C797S (LTC) mutation cell lines used in the present invention were purchased from the laboratory of Professor Byung-cheol Cho, Yonsei University. All cell lines were cultured in RPMI supplemented with 10% FBS, 1% penicillin-streptomycin and 1 μg/ml of puromycine in a 5% CO2 incubator at 37° C.
(§3) The cell survival inhibitory effect of the compound according to each EGFR mutation was analyzed by the following analysis method.
(§4) BaF3 cells were distributed in a 96-well cell culture plate at the density of 2000˜10000 cells/100 μL/well, and cultured for 24 hours. Thereafter, the concentration of the compound represented by formula 1 provided in one aspect of the present invention was prepared to double the final concentrations of 0.1 nM, 1 nM, 10 nM, 100 nM, 1000 nM and 10000 nM, and the compound was treated to the plate (100 μL/well). The plate was reacted in an incubator at 37° C. for 72 hours. Then, MTS was treated to the plate (20 μL/well) and the plate was incubated at 37° C. for 2 to 4 hours. Finally, after measuring the absorbance at 490 nm using a microplate reader, the relative value compared to 0 nM (% Control) was obtained to confirm the cell growth inhibitory ability of the compound. The measured values were analyzed using Prism program (version 8.0, Graphpad Software, Inc.), and the IC50 value (Inhibition concentration 50), an indicator of the cell growth inhibitory ability of the compound, was calculated.

[2] = target: Ba/F3 EGFR L858R/T790M/C797S (LTC) (Homo sapiens, UniProt P00533, T790M/C797S/L858R, cells depend on it); assay: Cell growth inhibitory ability in Ba/F3 cells overexpressing EGFR L858R/T790M/C797S (MTS, CellTiter 96 AQueous); assay type: cell-based; details: 72 hours, MTS absorbance at 490 nm, read-out: Ba/F3 EGFR triple mutant L858R/T790M/C797S, IC50
Protocol: as §1, §2, §3, §4

Row | Compound | GI50 [1] [nM] | GI50 [2] [nM]
1 | NC1CCN(c2ccc(-c3cc(C(=O)N[C@@H](c4cc5ccccc5[nH]4)c4cc(F)ccc4O)cc(-n4ccnc4)c3)cc2)CC1 [Example 13, (R)-4′-(4-aminopiperidine-1-yl)-N-((5-fluoro-2-hydroxyphenyl)(1H-indole-2-yl)methyl)-5-(1H-imidazole-1-yl)-[1,1′-biphenyl]-3-carboxamide] | > 200 | > 200
2 | (R)-3-(6-((4-(dimethylamino)piperidine-1-yl)methyl)pyridine-3-yl)-N-((5-fluoro-2-hydroxyphenyl)(1H-indole-2-yl))methyl)-5-methylbenzamide [Example 43] | < 30 | 30 to 200
3 | NC1CCN(c2ccc(-c3cc(Cl)cc(C(=O)N[C@@H](c4cc5ccccc5[nH]4)c4cc(F)ccc4O)c3)cc2)CC1 [Example 10, (R)-4′-(4-aminopiperidine-1-yl)-5-chloro-N-((5-fluoro-2-hydroxyphenyl)(1H-indole-2-yl)methyl)-[1,1′-biphenyl]-3-carboxamide] | < 30 | 30 to 200
4 | NC1CCN(c2ccc(-c3cc(OC(F)(F)F)cc(C(=O)N[C@@H](c4cc5ccccc5[nH]4)c4cc(F)ccc4O)c3)cc2)CC1 [Example 11, (R)-4′-(4-aminopiperidine-1-yl)-N-((5-fluoro-2-hydroxyphenyl)(1H-indole-2-yl)methyl)-5-(trifluoromethoxy)-[1,1′-biphenyl]-3-carboxamide] | > 200 | > 200
5 | Cc1cc(C(=O)N[C@@H](c2cc3ccccc3[nH]2)c2cc(F)ccc2O)cc(-c2ncc(N3C4CCC3CN(C)C4)cn2)c1 [Example 46, N—((R)-(5-fluoro-2-hydroxyphenyl)(1H-indole-2-yl)methyl)-3-methyl-5-(5-(3-methyl-3,8-diazabicyclo[3.2.1]octane-8-yl)pyrimidine-2-yl)benzamide] | – | < 30
6 | Cc1cc(C(=O)N[C@@H](c2cc3ccccc3[nH]2)c2cc(F)ccc2O)cc(-c2ncc(N3CCCCC3)cn2)c1 [Example 40, N—[(R)-(5-fluoro-2-hydroxy-phenyl)-(1H-indole-2-yl)methyl]-3-methyl-5-[5-(1-piperidyl)pyrimidine-2-yl]benzamide] | < 30 | 30 to 200
7 | Cc1cc(C(=O)N[C@@H](c2cc3ccccc3[nH]2)c2cc(F)ccc2O)cc(-c2ncc(N3CCC(C(=O)Nc4ccccc4)CC3)cn2)c1 [Example 55, (R)-1-(2-(3-(((5-fluoro-2-hydroxyphenyl)(1H-indole-2-yl)methyl)carbamoyl)-5-methylphenyl)pyrimidine-5-yl)-N-phenylpiperidine-4-carboxamide] | – | > 200
8 | Cc1cc(C(=O)N[C@@H](c2cc3ccccc3[nH]2)c2cc(F)ccc2O)cc(-c2ncc(N3CCC(n4cccc4)CC3)cn2)c1 [Example 47, (R)-3-(5-(4-(1H-pyrrole-1-yl)piperidine-1-yl)pyrimidine-2-yl)-N-((5-fluoro-2-hydroxyphenyl)(1H-indole-2-yl)methyl)-5-methylbenzamide] | – | > 200
9 | Cc1cc(C(=O)N[C@@H](c2cc3ccccc3[nH]2)c2cc(F)ccc2O)cc(-c2ccc(N3CCC(N)CC3)c(C)c2)c1 [Example 25, (R)-4′-(4-aminopiperidine-1-yl)-N-((5-fluoro-2-hydroxyphenyl)(1H-indole-2-yl)methyl)-3′,5-dimethyl-[1,1′-biphenyl]-3-carboxamide] | < 30 | < 30
10 | CC(C)c1cc(C(=O)N[C@@H](c2cc3ccccc3[nH]2)c2cc(F)ccc2O)cc(-c2ccc(N3CCC(N)CC3)cc2)c1 [Example 2, (R)-4′-(4-aminopiperidine-1-yl)-N-((5-fluoro-2-hydroxyphenyl)(1H-indole-2-yl)methyl)-5-isopropyl-[1,1′-biphenyl]-3-carboxamide] | > 200 | > 200
11 | Cc1cc(C(=O)N[C@@H](c2cc3ccccc3[nH]2)c2cc(F)ccc2O)cc(-c2ncc(N3CCC(N(C)C)CC3)cn2)c1 [Example 39, 3-[5-[4-(dimethylamino)-1-piperidyl]pyrimidine-2-yl]-N—[(R)-(5-fluoro-2-hydroxy-phenyl)-(1H-indole-2-yl)methyl]-5-methyl-benzamide] | < 30 | < 30
12 | Cc1cc(C(=O)N[C@@H](c2cc3ccccc3[nH]2)c2cc(F)ccc2O)cc(-c2ncc(N3CCC(N4CCCCC4)CC3)cn2)c1 [Example 50, (R)-3-(5-([1,4′-bipiperidine]-1′-yl)pyrimidine-2-yl)-N-((5-fluoro-2-hydroxyphenyl)(1H-indole-2-yl)methyl)-5-methylbenzamide] | – | < 30
13 | Cc1cc(C(=O)N[C@@H](c2cc3ccccc3[nH]2)c2cc(F)ccc2O)cc(-c2ncc(N3CC[C@@H](N(C)C)C3)cn2)c1 [Example 53, 3-[5-[(3R)-3-(dimethylamino)pyrrolidine-1-yl]pyrimidine-2-yl]-N—[(R)-(5-fluoro-2-hydroxy-phenyl)-(1H-indole-2-yl)methyl]-5-methyl-benzamide] | – | < 30
14 | CNC1CCN(c2cnc(-c3cc(C)cc(C(=O)N[C@@H](c4cc5ccccc5[nH]4)c4cc(F)ccc4O)c3)nc2)CC1 [Example 54, (R)—N-((5-fluoro-2-hydroxyphenyl)(1H-indole-2-yl)methyl)-3-methyl-5-(5-(4-(methylamino)piperidine-1-yl)pyrimidine-2-yl)benzamide] | – | < 30
15 | Cc1cc(C(=O)N[C@@H](c2cc3ccccc3[nH]2)c2cc(F)ccc2O)cc(-c2ncc(N3CCC(CN4CCCC4)CC3)cn2)c1 [Example 52, (R)—N-((5-fluoro-2-hydroxyphenyl)(1H-indole-2-yl)methyl)-3-methyl-5-(5-(4-(pyrrolidine-1-ylmethyl)piperidine-1-yl)pyrimidine-2-yl)benzamide] | – | > 200
16 | Cc1cc(C(=O)N[C@@H](c2cc3ccccc3[nH]2)c2cc(F)ccc2O)cc(-c2ncc(N3CCC(CN4CCOCC4)CC3)cn2)c1 [Example 51, (R)—N-((5-fluoro-2-hydroxyphenyl)(1H-indole-2-yl)methyl)-3-methyl-5-(5-(4-(morpholinomethyl)piperidine-1-yl)pyrimidine-2-yl)benzamide] | – | > 200
17 | COCCOc1ccc(N2CCN(c3cnc(-c4cc(C)cc(C(=O)N[C@@H](c5cc6ccccc6[nH]5)c5cc(F)ccc5O)c4)nc3)CC2)cc1 [Example 56, (R)—N-((5-fluoro-2-hydroxyphenyl)(1H-indole-2-yl)methyl)-3-(5-(4-(4-(2-methoxyethoxy)phenyl)piperazine-1-yl)pyrimidine-2-yl)-5-methylbenzamide] | – | > 200
18 | Cc1cc(C(=O)N[C@@H](c2cc3ccccc3[nH]2)c2cc(F)ccc2O)cc(-c2ncc(N3CCC(n4cncn4)CC3)cn2)c1 [Example 48, (R)-3-(5-(4-(1H-1,2,4-triazole-1-yl)piperidine-1-yl)pyrimidine-2-yl)-N-((5-fluoro-2-hydroxyphenyl)(1H-indole-2-yl)methyl)-5-methylbenzamide] | – | 30 to 200
19 | Cc1cc(C(=O)N[C@@H](c2cc3ccccc3[nH]2)c2cc(F)ccc2O)cc(-c2ncc(N3CCC(O)CC3)cn2)c1 [Example 49, (R)—N-((5-fluoro-2-hydroxyphenyl)(1H-indole-2-yl)methyl)-3-(5-(4-hydroxypiperidine-1-yl)pyrimidine-2-yl)-5-methylbenzamide] | – | < 30
